{"source": "patent US11191773B2", "about": "“Methods of treatment for bacterial infections” (President and Fellows of Harvard College, priority 2017, dated 2021)", "key": {"[1]": {"test_system": "novobiocin-resistant A. baumannii 19606 gyrB(R150C) point mutant (Novo^R)", "type": "cell-based"}, "[2]": {"target": "T1, LptB2LptFG(ch)C complexes (Escherichia coli, UniProt P0A9V1)", "T1 construct": "made in house; host or cells: right-side-out membrane vesicles from E. coli BL-21(λDE3) overexpressing the complex", "T1 sequence (P0AF98 whole entry E84A)": "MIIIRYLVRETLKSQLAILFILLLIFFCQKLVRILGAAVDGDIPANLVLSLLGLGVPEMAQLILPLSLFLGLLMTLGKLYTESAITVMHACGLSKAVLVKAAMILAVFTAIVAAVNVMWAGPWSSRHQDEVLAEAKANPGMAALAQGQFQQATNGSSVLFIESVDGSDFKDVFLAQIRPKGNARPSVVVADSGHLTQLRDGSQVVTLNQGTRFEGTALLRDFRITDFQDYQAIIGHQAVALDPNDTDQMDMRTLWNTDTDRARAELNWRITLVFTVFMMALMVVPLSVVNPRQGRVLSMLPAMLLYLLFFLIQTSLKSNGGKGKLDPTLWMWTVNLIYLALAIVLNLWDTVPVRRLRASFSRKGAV", "T1 sequence (P0ADC6 whole entry E88A, further chain)": "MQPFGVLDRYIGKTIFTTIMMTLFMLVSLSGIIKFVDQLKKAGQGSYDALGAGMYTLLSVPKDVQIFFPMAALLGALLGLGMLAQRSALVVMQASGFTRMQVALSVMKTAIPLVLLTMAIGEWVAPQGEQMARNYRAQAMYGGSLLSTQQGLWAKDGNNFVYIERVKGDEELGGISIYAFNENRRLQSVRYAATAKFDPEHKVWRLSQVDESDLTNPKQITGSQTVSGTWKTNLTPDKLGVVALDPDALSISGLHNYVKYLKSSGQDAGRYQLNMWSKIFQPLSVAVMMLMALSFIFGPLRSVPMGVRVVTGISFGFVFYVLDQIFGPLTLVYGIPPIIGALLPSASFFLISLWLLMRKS", "T1 sequence (P0A9V1 2-241)": "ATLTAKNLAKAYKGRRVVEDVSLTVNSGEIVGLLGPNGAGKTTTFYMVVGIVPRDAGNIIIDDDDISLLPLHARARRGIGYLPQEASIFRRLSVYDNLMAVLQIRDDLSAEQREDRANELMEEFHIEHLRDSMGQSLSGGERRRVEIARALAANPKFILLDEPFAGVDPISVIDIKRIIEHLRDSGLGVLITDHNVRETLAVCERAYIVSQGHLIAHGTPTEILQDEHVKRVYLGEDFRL", "T1 sequence (P0ADV9 whole entry, further chain)": "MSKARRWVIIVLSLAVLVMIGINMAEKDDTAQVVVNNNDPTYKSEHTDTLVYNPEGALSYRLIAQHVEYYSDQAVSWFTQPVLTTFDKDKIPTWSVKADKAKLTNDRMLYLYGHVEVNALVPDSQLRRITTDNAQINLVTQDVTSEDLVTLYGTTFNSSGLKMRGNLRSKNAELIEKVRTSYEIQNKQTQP", "test": "LPS-release assay, right-side-out vesicles to LptA*", "type": "biochemical, E. coli", "conditions": "30° C. (FIG. 9C)", "procedure": "FIG. 9A is a schematic drawing showing the assay to monitor LPS release from right-side-out vesicles to LptA* (LptA(I36pBPA)). Vesicles containing overexpressed wild-type or mutant LptB2FGC complexes were incubated with LptA* and ATP at 30° C. to initiate LPS extraction and transport from the vesicles to LptA*. Samples were taken at different time points and UV-irradiated to crosslink LPS to LptA*, and accumulation of LPS-LptA* adducts was detected using LPS immunoblots.\nThe assay detects via immunoblot LPS that becomes crosslinked to LptA* in the presence of UV light. […] By comparison, vesicles containing LptB2LptFG(ch)C complexes released less LPS over time (FIG. 9B, lanes 5-8). These experiments provide direct evidence that the amino acid changes in LptFG(ch), which were known to affect complex formation with LptB, impair LPS release. […] These compounds also increase LPS release from vesicles containing wild-type LptB2FGC complexes or LptB(R91 S)2FGC complexes (FIG. 17).\nThe in vitro LPS-transport experiments in FIGS. 9B, 9C, and 17 were set-up as described in (Okuda et al. Science 2012, 338, 1214-1217) with some modifications. […]\nImmunoblotting was used to assess LptA*-LPS levels in each sample. […] LptA levels were assessed similarly, using rabbit anti-LptA antiserum followed by donkey anti-rabbit horseradish peroxidase conjugate (GE Amersham). […]"}, "[3]": {"test_system": "wild-type A. baumannii", "test": "Checkerboard microdilution assay with PMB, PMBN, novobiocin, novobiocin aglycone", "type": "cell-based"}, "[4]": {"test_system": "IptFG(ch) mutant", "test": "Rescue of growth of coupling helix mutant (plating and disk assays)", "type": "cell-based, E. coli", "procedure": "FIG. 8B is a series of pictures of bacterial overnight cultures grown in minimal medium. The cultures were serially diluted ten-fold and spotted onto LB agar plates with and without compounds.\nFIG. 15 is a picture of bacterial lawns grown on plates in the presence of disks containing antibiotics. […] Strains were grown overnight in minimal media and then plated on LB plates. Each disk contained 5 μg compound.\nThe coupling helices in LptFG each contain a strictly-conserved glutamate, and changing both glutamates to alanine (IptFG(ch)) causes a lethal loss of function (FIG. 8B, LB panel). […] Because novobiocin also contacts R91 (FIG. 7C), we speculated that it might rescue growth of IptFG(ch) by masking the charge. […] We conclude that novobiocin suppresses Lpt defects in vivo by interacting with LptB at R91; therefore, novobiocin interacts with LptB in cells in a similar manner to that observed in the crystal structure.\nDisk diffusion assays were performed as described in Sherman et al., Proc. Natl. Acad. Sci. USA 2014, 111, 4982-4987. Premade Sensi-Disc (BD-Beckton, Dickinson and Company) were used for bacitracin 10IU, erythromycin 15 μg, novobiocin 30 μg, and rifampin 5 μg.\nEfficiency of plating assays were performed on indicated media using the method described in Butler et al., J. Bacteriol. 2013, 195, 4639-4649."}, "[5]": {"test_system": "polymyxin-resistant E. coli (clinical isolate from Brigham and Women's Hospital)", "type": "cell-based", "conditions": "37° C. for 24 h", "description": "The effect of novobiocin/polymyxin combination was further assessed in polymyxin-resistant strains using checkerboard microdilution assays. In these assays, polymyxin-resistant strains (E. coli (clinical isolate from Brigham and Women's Hospital); A. baumannii (ATCC: 19606) mutant that is novobiocin and polymyxin-resistant; and K. pneumoniae (clinical isolate from Brigham and Women's Hospital)) were grown at 37° C. for 24 h."}}, "note": "Entries after “also recorded” stand apart in the source; their conditions may differ.", "data": [{"smiles": "CO[C@@H]1[C@@H](OC(N)=O)[C@@H](O)[C@H](Oc2ccc3c(O)c(NC(=O)c4ccc(O)c(CC=C(C)C)c4)c(=O)oc3c2C)OC1(C)C", "note": "[Novobiocin, novobiocin]", "values": [{"measurement": "synergy with PMBN", "setting": "[1]; Novo^R A. baumannii", "result": "resistant to the same combination; also recorded: same synergy but at higher [novobiocin]"}, {"measurement": "resistance of gyrB(R150C) point mutant towards novobiocin", "setting": "[1]; relative to wild type", "result": 300, "unit": "fold"}, {"measurement": "LPS release from vesicles to LptA*", "setting": "[2]", "result": "stimulate LPS release from the LptB2LptFG(ch)C vesicles in a concentration dependent manner"}, {"measurement": "synergy with PMBN", "setting": "[3]", "result": "exhibits synergy"}, {"measurement": "suppression of lethality of IptFG(ch)", "setting": "[4]; disks on LB plates, each disk 5 μg compound (FIG. 15)", "result": "suppressed the lethality of IptFG(ch)"}, {"measurement": "rescue of growth of IptFG(ch)", "setting": "[4]; serial dilutions spotted onto LB agar plates with compound (FIG. 8B)", "result": "enables the IptFG(ch) mutant to grow"}, {"measurement": "synergy with polymyxin B", "setting": "[5]", "result": "synergizes with polymyxin B"}]}]}
